The text below walks through data of article PMC10381533, “Inhibitory Effects of the Fungal Pigment Rubiginosin C on Hyphal and Biofilm Formation in Candida albicans and Candida auris” (Journal of Fungi, 2023).

Molecules are shown by their SMILES. Like-named read-outs stand apart in the source and are kept apart here. *1 amine or outer side, *2 acyl side, *3 side chain or, on linkers, in order; H or OH if unused. Where a SMILES comes first, the peptide text is derived from it. [ ]: non-standard residue; d: D form. The star is where a group is joined. X1 = O=C(C[C@H](N[*:1])c1ccc(O)cc1)[*:2]; dVal(3-OH) = CC(C)(O)[C@@H](N)C(=O)O; ΔIle(E) = CC/C(C)=C(/N)C(=O)O; Isovaleryl = CC(C)CC(=O)*; Agmatine = N=C(N)NCCCCN*; NMeA = CN[C@@H](C)C(=O)O; ΔVal = CC(C)=C(N)C(=O)O

Assay [1] relates to human endocervical adenocarcinoma KB-3-1 [ACC 158] cells. Nature of the assay: MTT cytotoxicity assay, KB-3-1. Type of assay: cell-based. The settings on record: KB 3-1. On the procedure:
(§1) Cytotoxic effects were evaluated on human endocervical adenocarcinoma KB-3-1 [ACC 158] cells and mouse fibroblasts L929 [ACC 2] upon treatment with Rub C, W, and Rut A and B within the concentration range of 37 μg/mL–0.63 ng/mL. The half-maximum inhibitory concentrations (IC50) were determined by standard MTT assays as reported previously (see the Supplementary Material for detailed information). The IC50 values of Rub A and Z have currently been reported. […]
(§2) KB-3-1 (ACC 158) cervix carcinoma as well as L929 (ACC 2) mouse fibroblasts were cultured under standard cell culture conditions (37 °C, 5% CO2, 95% humidified atmosphere). The cells were maintained in high glucose DMEM containing 10% fetal bovine serum and 100 U/mL penicillin and streptomycin (Gibco, Thermo Fisher Scientific, Waltham, USA). Cell lines were serially passaged after trypsinization, using 0.05% trypsin / 0.02% EDTA solution. The cultures were routinely monitored for potential contamination, and only mycoplasma free cultures were used. The test compounds were investigated for their anti-proliferative effect on cell lines, using the 3-(4,5-dimethylthiazol-2-yl)-2,5-diphenyltetrazolium bromide (MTT) based cell viability assay. Cells were seeded in 96 well microtiter plates (Sarstedt, Germany) with a cell density of 0.05 * 10^6 cells per mL and 100 μL per well and were incubated for 24 h. […]
(§3) Absorbances at 570 nm and 630 nm were measured with a plate reader (Tecan, Männedorf, canton of Zürich, Switzerland). Background absorbance (630 nm) was subtracted from the formazan signal (570 nm). The resulting absorbance is directly proportional to the amount of viable cells. The control was normalized to 100% viable cells, and the viability of cells treated with the test compounds was calculated accordingly. IC50 values were calculated based on a sigmoidal fit model using GraphPad Prism. Means and SD were calculated from at least four independent experiments. […]

Assay [2] deals with mouse fibroblasts L929 [ACC 2]. Nature of the assay: MTT cytotoxicity assay, L929. Type of assay: cell-based. The procedure:
as §1, §2, §3

For assay [3], the system named is human endocervical adenocarcinoma KB-3-1 [ACC 158] cells. To be noted: second value of the cell; cited from earlier work.
Assay [4] deals with mouse fibroblasts L929 [ACC 2]. The settings on record: second value of the cell; cited from earlier work.
For assay [5], the system named is Staphylococcus aureus (DSM 1104) biofilm. Nature of the assay: Crystal violet biofilm inhibition assay, S. aureus. Type of assay: cell-based. On the procedure:
Selected azaphilones Rub C and W, Rut A and B were tested against the formation of biofilms in Staphylococcus aureus (DSM 1104). S. aureus DSM 1104 from a −20 °C stock was precultured in 25 mL CASO (casein-peptone soymeal-peptone) medium in a 250 mL flask at 37 °C with 100 rpm for 20 h. The OD600 of the culture solution was adjusted to 0.001 McFarland standard and incubated in 96-well microtiter plates (TPP tissue culture ref.no 92196, Switzerland) for 18 h at 37 °C with 150 μL of serially diluted test […]
(§4) compounds (250–2 μg/mL) in CASO with 4% glucose broth. The inhibition of biofilm formation was evaluated by staining with 150 μL of 0.1% crystal violet (CV; Thermo Fisher) following previously established protocols. In the next step, the supernatant of the 96-well plate was discarded and the wells were rinsed once with PBS buffer. The remaining biofilms were stained at room temperature for 15 min, rinsed three times with PBS buffer, and finally dissolved in 150 μL ethanol (95%). The absorbance of the resulting solution at 530 nm was quantified using a plate reader (Synergy 2, BioTek). Methanol (2.5%) and microporenic acid A (MAA) (250–2 μg/mL) were used as negative and positive controls. Standard deviations (SD) of two repeats with duplicates were 10% or less. […]
μg/mL) were used as negative control and positive control, respectively. The assay was conducted for […]
(§5) Table S2: Selected azaphilones were tested against the formation of biofilm of S. aureus, P. aeruginosa as well as C. auris and dispersal effect on preformed biofilm of S. aureus compared to solvent control (= 0%), respectively. SDs are shown as ±SD.
(§6) Compounds Strains Concentrations [µg/mL] […]

Assay [6] relates to preformed S. aureus biofilm. Nature of the assay: Dispersal effect on preformed S. aureus biofilm. The class given is cell-based, Staphylococcus aureus. On the procedure:
as §4, §5, §6

For assay [7], the system named is Pseudomonas aeruginosa (PA 14) DSM 19882 biofilm. Nature of the assay: Crystal violet biofilm inhibition assay, P. aeruginosa. The class given is cell-based. To be noted: assay conducted once. On the procedure: Selected azaphilones Rub C and W, Rut A and B were tested against the formation of biofilms in Pseudomonas aeruginosa (PA 14) DSM 19882. Bacterial strain was precultured in 25 mL LB medium (Luria - Bertani Broth) with a 250 mL flask at 37 °C with shaking 100 rpm overnight. The turbidity of the baterial solution was measured and diluted to match the turbidity of a 0.1 McFarland standard in M63 medium, which is supplemented with magnesium sulfate, glucose and casamino acids as previously described. The compounds were added into 150 μL bacterial solution at the concentration (250–2 μg/mL) then the solution was added in U-bottom 96 well plate (Falcon ref.no 351177, Thermo Fisher Scientific). The plates were incubated at 37 °C at 150 rpm for 24 h and biofilms were established at the air liquid interface. The plates were rinsed once by using PBS buffer, the biofilms were stained by 150 μL 0.1% CV at room temperature for 15 min and then rinsed two times by using PBS buffer. The absorbance was quantified with the plate reader (Synergy 2, BioTek) at 550 nm using ethanol (95%). Methanol (2.5 %) and myxovalargin A (250 –2 μg/mL) were used as negative control and positive control, respectively. The assay was conducted for […]
as §5, §6

Consider `C/C(=C\c1csc(C)n1)[C@@H]1C[C@@H]2O[C@]2(C)CCC[C@H](C)[C@H](O)[C@@H](C)C(=O)C(C)(C)[C@@H](O)CC(=O)O1` [Epothilone B, reference compound], for which the IC50 in assay [1] is 0.053 nM; in assay [2], 0.17 nM; in assay [3], 0.028 nM; in assay [4], 0.031 nM.
As to `CC(C)=CCC/C(C)=C/CC/C(C)=C/CC/C(C)=C/CO[C@@H](C(=O)O)[C@H](CC(=O)O)C(=O)O` [MAA, microporenic acid A, reference compound], the “inhibition of S. aureus biofilm formation compared to solvent control (= 0%)” value in assay [5] (2 µg/mL) is listed as “/ ((/) no activity)”; in assay [5] (3.9 µg/mL), 45 ±10%; in assay [5] (7.8 µg/mL), 77 ±10%; in assay [5] (15.6 µg/mL), 83 ±6%; in assay [5] (31.3 µg/mL), 86 ±4%; in assay [5] (62.5 µg/mL), 86 ±4%. In addition, the “inhibition of S. aureus biofilm formation compared to solvent control (= 0%)” value in assay [5] (125 µg/mL) came to 85 ±5%; in assay [5] (250 µg/mL), 83 ±6%. The “dispersal effect on preformed biofilm of S. aureus compared to solvent control (= 0%)” value in assay [6] (15.6 µg/mL) is 33 ±10%; in assay [6] (31.3 µg/mL), 54 ±6%; in assay [6] (62.5 µg/mL), 60 ±9%; in assay [6] (125 µg/mL), 65 ±7%; in assay [6] (250 µg/mL) it was 65 ±4%.
On to `CC/C(C)=C(/NC(=O)[C@H](NC(=O)[C@H](NC(=O)[C@@H](CCCN=C(N)N)NC(=O)C(NC(=O)[C@@H](NC(=O)C[C@H](NC(=O)[C@H](NC(=O)[C@H](NC(=O)[C@H](C)N(C)C(=O)[C@H](C)NC(=O)C(NC(=O)CC(C)C)=C(C)C)C(C)C)C(C)C)c1ccc(O)cc1)C(C)C)=C(C)C)C(C)C)C(C)C)C(=O)N[C@H](C)C(=O)N[C@@H](C(=O)NCCCCN=C(N)N)C(C)(C)O` [Myxovalargin A, myxovalargin A, reference compound] (Isovaleryl-[ΔVal]A[NMeA][dV][dV][X1]V[ΔVal][dR][dV][dV][ΔIle(E)][dA][dVal(3-OH)]-Agmatine), for which the “inhibition of P. aeruginosa biofilm formation compared to solvent control (= 0%)” value in assay [7] (2 µg/mL) was “/ ((/) no activity)”; in assay [7] (3.9 µg/mL) it was “/ ((/) no activity)”; in assay [7] (7.8 µg/mL), “/ ((/) no activity)”; in assay [7] (15.6 µg/mL) it was “/ ((/) no activity)”; in assay [7] (31.3 µg/mL), 61%; in assay [7] (62.5 µg/mL), 59%. Further, the results for the “inhibition of P. aeruginosa biofilm formation compared to solvent control (= 0%)” value in assay [7] (125 µg/mL) and in assay [7] (250 µg/mL) were 65% and 55%, respectively.
